Key:
Escherichia coli = assay: Effect on intestinal bacteria: number of Escherichia coli in feces; assay type: in vivo, ICR mice; details: 500 mg/kg/day
Procedure: (b) Effect on the intestinal bacterial colonies:
[…] Each portion of the two kinds of the feces was cultured at 25° C. or 37° C. in a variety of culture medium for one to five days to see the state of Escherichia coli, Pseudomonas aeruginosa, a Streptococcus species, a Lactobacillus species, Lactobacillus bifidus and a Bacteroides species in the culture medium.
(§1) Effects of the present compound on intestinal bacteria
Each of the two fecal […] by weight of an anaerobic diluent (a phosphoric acid buffer solution) and was ground in a mortar, and 0.1 ml of the thus ground material was smeared on each of the following culture media for the following bacteria, and the thus inoculated culture media were incubated under the following conditions. Thereafter, the number of the following bacteria in each of the thus cultured media was determined.

a species of Bacteroides = assay: Effect on intestinal bacteria: number of a sp. of Bacteroides in feces; assay type: in vivo, ICR mice; details: 500 mg/kg/day
Procedure: (§2) (b) Effect on the intestinal bacterial colonies: […]
as §1
(§3) Each of the present compounds respectively produced in Examples 1 to 18 was orally administered continuously for 2 days at a daily dose rate of 500 mg/kg body weight to each of five female ICR mice of each group after 6 weeks of their birth.
(§4) Each of the two fecal specimens respectively collected from each mouse before and after one day of the administration was diluted with 100 times by weight of an anaerobic diluent (a phosphoric acid buffer solution) and was ground in a mortar, and 0.1 ml of the thus ground material was smeared on each of the following culture media for the following bacteria, and the thus inoculated culture media were incubated under the following conditions. Thereafter, the number of the following bacteria in each of the thus cultured media was determined.
a species of Bacteroides
NBGT agar 37° C., 5 days, […]

Lactobacillus bifidus = assay: Effect on intestinal bacteria: number of Lactobacillus bifidus in feces; assay type: in vivo, ICR mice; details: 500 mg/kg/day
Procedure: as §2, §1, §3, §4
BS agar 37° C., 5 days, […]

Pseudomonas aeruginosa = assay: Effect on intestinal bacteria: number of Pseudomonas aeruginosa in feces; assay type: in vivo, ICR mice; details: 500 mg/kg/day
Procedure: as §1, §3, §4
NAC agar 37° C., one day, […]

[1] = tested on: a species of Lactobacillus; assay: Effect on intestinal bacteria: number of a sp. of Lactobacillus in feces; assay type: in vivo, ICR mice; details: 500 mg/kg/day
Procedure: as §2, §1, §3, §4
a species of Lactobacillus
LBS agar 37° C., 5 days, […]

[2] = tested on: a species of Streptococcus; assay: Effect on intestinal bacteria: number of a sp. of Streptococcus in feces; assay type: in vivo, ICR mice; details: 500 mg/kg/day
Procedure: as §2, §1, §3, §4
a species of Streptococcus
TATAC agar 37° C., one day, […]

[3] = tested on: Staphylococcus aureus IAM 1011; assay: Antibacterial activity in vitro (MIC) against Staphylococcus aureus; assay type: cell-based; details: IAM1011, Mueller-Hinton agar, 18 to 24 hours, 37° C., read-out: MIC (minimum growth inhibiting concentration) against Staphylococcus aureus
Procedure: (§5) (c) Anti-bacterial activity (in vitro):
(§6) Minimum concentration of the present compound inhibiting the growth of the following bacteria was determined according to the standard procedures of Japan Society of Chemotherapy:
Staphylococcus aureus IAM 1011
(§7) Determination of the antibacterial activity of the present compound produced in Examples 1 to 18, respectively was carried out according to the standard procedures of Japan Society of Chemotherapy for finding MIC (the minimum concentration of a specimen to inhibit the growth of a species of bacteria).
(§8) A series of diluted solutions of each of the present compound were mixed with 9 times by weight of Mueller-Hinton's culture medium as the culture medium for determining the sensitivity of a bacterial species, and flat agar culture plates were prepared by using the thus obtained mixture.
(§9) Each of the liquids respectively containing one of the bacterial species shown in Table 2 was smeared onto each of the thus prepared flat agar culture plates with a platinum loop, in length of about 2 cm, and the thus treated plates were incubated for 18 to 24 hours at 37° C. Thereafter, by observing the growth state of each bacterial species on the cultured plates, the minimum concentration of each compound completely inhibiting the growth of each bacterial species was found.

[4] = tested on: Escherichia coli IFO 12734; assay: Antibacterial activity in vitro (MIC) against Escherichia coli; assay type: cell-based; details: IFO12734, Mueller-Hinton agar, 18 to 24 hours, 37° C., read-out: MIC (minimum growth inhibiting concentration) against Escherichia coli
Procedure: as §5, §6
Escherichia coli IFO 12734 and
as §7, §8, §9

[5] = after oral administration for 2 days, female ICR mice, before: 6.4
[6] = after oral administration for 2 days, female ICR mice, before: 8.2
[7] = after oral administration for 2 days, female ICR mice, before: 8.3
[8] = after oral administration for 2 days, female ICR mice, before: <3.0
[9] = after oral administration for 2 days, female ICR mice, before: 9.0
[10] = after oral administration for 2 days, female ICR mice, before: 6.8

SMILES	Number of Escherichia coli after the administration (Escherichia coli; [5])	Number of a sp. of Bacterioides after the administration (a species of Bacteroides; [6])	Number of Lactobacillus bifidus after the administration (Lactobacillus bifidus; [7])	Number of Pseudomonas aeruginosa after the administration (Pseudomonas aeruginosa; [8])	Number of a sp. of Lactobacillus after the administration [1, 9]	Number of a sp. of Streptococcus after the administration [2, 10]	Number of a sp. of Bacterioides after the administration (a species of Bacteroides; mouse, in vivo, po)	Number of Lactobacillus bifidus after the administration (Lactobacillus bifidus; mouse, in vivo, po)	Number of Pseudomonas aeruginosa after the administration (Pseudomonas aeruginosa; mouse, in vivo, po)	Number of a sp. of Lactobacillus after the administration ([1]; mouse, in vivo, po)	Number of a sp. of Streptococcus after the administration ([2]; mouse, in vivo, po)	MIC [3] [µg/mL]	MIC [4] [µg/mL]	Number of Escherichia coli after the administration (Escherichia coli; mouse, in vivo, po)
CC1=C(C(=O)O)N2C(=O)[C@@H](NC(=O)[C@H](N)c3ccccc3)[C@H]2SC1 [CEFALEXIN, 7(D-alpha-amino-alpha-phenylacetamido)-3-methyl-3-cephem-4-carboxylic aci, reference compound]	9.2 Log10 (number of bacteria/g feces)	8.1 Log10 (number of bacteria/g feces)	8.0 Log10 (number of bacteria/g feces)	< 3.0 Log10 (number of bacteria/g feces)	4.0 Log10 (number of bacteria/g feces)	8.5 Log10 (number of bacteria/g feces)	–	–	–	–	–	–	–	–
CC(=O)OCC1=C(C(=O)O)N2C(=O)[C@@H](NC(=O)CSc3ccncc3)[C@H]2SC1 [CEPHAPIRIN, 7(4-pyridylthioacetamido)cephalosporanic acid, reference compound]	9.0 Log10 (number of bacteria/g feces)	8.5 Log10 (number of bacteria/g feces)	9.1 Log10 (number of bacteria/g feces)	< 3.0 Log10 (number of bacteria/g feces)	4.1 Log10 (number of bacteria/g feces)	9.1 Log10 (number of bacteria/g feces)	–	–	–	–	–	–	–	–
CC(=O)OCC1=C(C(=O)O)N2C(=O)C(NC(=O)CC#N)C2SC1 (stereo not shown) [Compound X, sodium 7(2-cyanoacetamido)cephalosporanate, reference compound]	9.0 Log10 (number of bacteria/g feces)	–	–	–	–	–	8.2 Log10 (number of bacteria/g feces)	6.0 Log10 (number of bacteria/g feces)	< 3.0 Log10 (number of bacteria/g feces)	4.6 Log10 (number of bacteria/g feces)	9.1 Log10 (number of bacteria/g feces)	–	–	–
COC(=O)c1ccc(NC(=O)C2=C(COC(C)=O)CSC3C(NC(=O)CSc4ccncc4)C(=O)N23)cc1 (stereo not drawn) [Example 1, N-(4-carbomethoxyphenyl)-[7-beta-(4-pyridylthioacetamido)cephalosporanic]amide]	6.9 Log10 (number of bacteria/g feces)	–	–	–	–	–	8.8 Log10 (number of bacteria/g feces)	8.4 Log10 (number of bacteria/g feces)	< 3.0 Log10 (number of bacteria/g feces)	9.1 Log10 (number of bacteria/g feces)	6.7 Log10 (number of bacteria/g feces)	≥ 12.5	≥ 100	–
COC(=O)Cc1ccc(NC(=O)C2=C(COC(C)=O)CSC3C(NC(=O)CSc4ccncc4)C(=O)N23)cc1 (stereo not shown) [Example 2, N-(4-carbomethoxymethylphenyl)-[7-(4-pyridylthioacetamido)caphalosporanic]amide]	6.5 Log10 (number of bacteria/g feces)	–	–	–	–	–	8.7 Log10 (number of bacteria/g feces)	8.6 Log10 (number of bacteria/g feces)	< 3.0 Log10 (number of bacteria/g feces)	9.0 Log10 (number of bacteria/g feces)	6.6 Log10 (number of bacteria/g feces)	≥ 50	≥ 100	–
COC(=O)CNC(=O)c1ccc(NC(=O)C2=C(COC(C)=O)CSC3C(NC(=O)CSc4ccncc4)C(=O)N23)cc1 (stereo not shown) [Example 3, N-(4-carbomethoxymethylcarbamoylphenyl)-[7-(4-pyridylthioacetamido)cephalosporanic]amide]	6.5 Log10 (number of bacteria/g feces)	–	–	–	–	–	8.1 Log10 (number of bacteria/g feces)	8.5 Log10 (number of bacteria/g feces)	< 3.0 Log10 (number of bacteria/g feces)	9.1 Log10 (number of bacteria/g feces)	6.7 Log10 (number of bacteria/g feces)	≥ 50	≥ 100	–
COC(=O)Cc1ccc(NC(=O)C2=C(C)CSC3C(NC(=O)[C@H](N)c4ccccc4)C(=O)N23)cc1 (stereo partly drawn) [Example 4, N-(4-carbomethoxymethylphenyl)-[7-(D-alpha-aminophenylacetamido)desacetoxycephalosporanic]amide]	6.6 Log10 (number of bacteria/g feces)	–	–	–	–	–	8.3 Log10 (number of bacteria/g feces)	8.3 Log10 (number of bacteria/g feces)	< 3.0 Log10 (number of bacteria/g feces)	8.9 Log10 (number of bacteria/g feces)	6.8 Log10 (number of bacteria/g feces)	≥ 100	≥ 100	–
CC(=O)OCC1=C(C(=O)Nc2ccc(C(N)=O)cn2)N2C(=O)C(NC(=O)CSc3ccncc3)C2SC1 (stereo not shown) [Example 6, N-(nicotinamido)-[7-(4-pyridylthioacetamido)cephalosporanic acid]amide]	6.7 Log10 (number of bacteria/g feces)	–	–	–	–	–	8.7 Log10 (number of bacteria/g feces)	8.6 Log10 (number of bacteria/g feces)	< 3.0 Log10 (number of bacteria/g feces)	9.0 Log10 (number of bacteria/g feces)	6.7 Log10 (number of bacteria/g feces)	≥ 100	≥ 100	–
Cc1nnc(SCC2=C(C(=O)O)N3C(=O)[C@@H](NC(=O)Cn4cnnn4)[C@H]3SC2)s1 [SODIUM CEFAZORIN, reference compound]	–	–	–	–	–	–	7.3 Log10 (number of bacteria/g feces)	9.1 Log10 (number of bacteria/g feces)	< 3.0 Log10 (number of bacteria/g feces)	4.0 Log10 (number of bacteria/g feces)	8.6 Log10 (number of bacteria/g feces)	–	–	8.9 Log10 (number of bacteria/g feces)

— patent US4758558A, “N-(substituted)-[7-(2-cyanoacetamido)cephalosporanic]amide derivatives having antibiotic utility” (priority 1982, dated 1988)
